The values below come from paper PMC8426295, “Cytotoxic and radiosensitising effects of a novel thioredoxin reductase inhibitor in breast cancer” (Investigational New Drugs, 2021).

One series has as its target T1, TrxR (Homo sapiens, UniProt Q16881).
T1 sequence (Q16881 1-649): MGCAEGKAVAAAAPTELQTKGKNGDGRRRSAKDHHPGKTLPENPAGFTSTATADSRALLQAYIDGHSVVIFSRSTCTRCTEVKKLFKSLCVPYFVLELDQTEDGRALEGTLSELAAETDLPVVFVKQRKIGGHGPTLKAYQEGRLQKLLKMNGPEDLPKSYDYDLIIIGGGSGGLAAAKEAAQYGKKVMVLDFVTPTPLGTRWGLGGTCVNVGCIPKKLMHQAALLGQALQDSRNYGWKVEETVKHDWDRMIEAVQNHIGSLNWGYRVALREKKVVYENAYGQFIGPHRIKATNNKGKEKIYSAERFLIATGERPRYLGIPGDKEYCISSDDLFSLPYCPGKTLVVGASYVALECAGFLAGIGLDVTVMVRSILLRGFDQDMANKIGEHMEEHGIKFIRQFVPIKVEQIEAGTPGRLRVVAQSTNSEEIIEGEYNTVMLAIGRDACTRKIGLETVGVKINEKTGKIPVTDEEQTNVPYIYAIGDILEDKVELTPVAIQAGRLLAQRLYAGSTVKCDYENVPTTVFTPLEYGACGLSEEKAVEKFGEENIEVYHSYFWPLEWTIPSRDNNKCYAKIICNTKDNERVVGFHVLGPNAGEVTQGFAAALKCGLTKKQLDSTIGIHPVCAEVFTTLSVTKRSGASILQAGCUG
Put plainly: Thioredoxin reductase activity assay (insulin reduction) on lysates of drug-treated breast cancer cells. In kind it is cell-based. As to conditions: 1000 nM; for inhibition of TrxR activity: 48 h. How it is done:
TrxR enzyme activity was assessed using an insulin reduction assay. Briefly, 2 × 10^6 cells were seeded, in triplicate, in 75c m^2 tissue culture flasks. After 24 h, sub-confluent cells were treated with either IQ9 (0–1000 nM) or 1000 nM auranofin (as a positive control) for 4 or 48 h, then trypsinised, washed, and resuspended in M-PER™ Mammalian Protein Extraction Reagent (ThermoFisher, USA) supplemented with 1X Halt protease inhibitor and EDTA. Protein concentration was determined using the Bradford assay. 80 μg of protein lysates isolated from each treatment conditions and reaction mix (HE buffer (100 mM HEPES pH 7.2, 5 mM EDTA), 20 μM Trx, 1.7 mM insulin, 10 mM β-NADPH) were added to the 96-well plate and incubated for 1 h at 37 °C. The reaction was stopped by adding stop buffer containing 6 M guanidine hydrochloride, 50 mM Tris, and 10 mM DTNB (Sigma, UK), with a final pH of 8.0. The plate was read at room temperature using a BMG Fluostar Optima Microplate Reader at 412 nm wavelength. The TrxR activity was expressed as the percentage of control, no drug-treated.

The next series has as its system breast cancer cell lines. The series can be described thus: Cell proliferation assay, stated across all cell lines. The class given is cell-based, human. As to conditions: 400–600 nM, 48 h. How it is done: 1 × 10^5 cells (2 × 10^5 for T47D’s) were seeded, in triplicate, in 6-well plates and incubated overnight before being treated with IQ9 (0–5000 nM) or doxorubicin (400–600 nM) (positive control and comparator). Total cells were counted after 48 h using a haemocytometer. The total cell count in drug treatment wells was normalised as a percentage of the total cells in vehicle control wells.

Details of series [1]: method as in PMID 22509926. As to conditions: cited from earlier work.
Details of series [2]: method as in PMID 27217046. As to conditions: clinical; cited from earlier work.
A further series concerns renal cancer lines. Further details: method as in PMID 28810535. As to conditions: cited from earlier work.
A further series has as its system breast cancer lines. The arrangement: method as in PMID 31366901. The conditions noted are these: cited from earlier work.

Turning to `CC(=O)OC[C@H]1O[C@@H]([S-])[C@H](OC(C)=O)[C@@H](OC(C)=O)[C@@H]1OC(C)=O.CCP(CC)CC.[Au+]` [auranofin, reference compound], on TrxR (4 h, across all cell lines), the “decrease in TrxR activity” value is reported as 70–100%. The “inhibition of TrxR activity” value on TrxR (MDA-MB-231) is recorded as “approximately 80%”; at TrxR (T47D, compared to control) it was 10%.

With `COc1cccc2c1C(=O)c1c(O)c3c(c(O)c1C2=O)C[C@@](O)(C(=O)CO)C[C@@H]3O[C@H]1C[C@H](N)[C@H](O)[C@H](C)O1` [doxorubicin], the “decrease in cell number” value in the series with breast cancer cell lines is recorded as 50–70%.

With `Cn1c(/C=C/CO)c(CO)c2c1C(=O)C=C(N1CC1)C2=O` [EO9], in series [1], the clearance entry is recorded as “rapid clearance”.

`O=c1[nH]cc(F)c(=O)[nH]1` [5-FU, 5-fluorouracil]: the half-life result in series [2] was “less than 20 min”.

As for `COc1cc(/C=C/C(=O)CC(=O)/C=C/c2ccc(O)c(OC)c2)ccc1O` [curcumin], the SER in the series with renal cancer lines is on record as 1.42; in the series on breast cancer lines, 1.38–1.78.
